Data: US9211310B2, “Use of a Chinese medicine composition in preparing medicaments for treating secondary prevention of myocardial infarction” (TASLY PHARMACEUTICAL GROUP CO., LTD, priority 2010, dated 2015)

Tested on: patients after acute myocardial infarction
Experiment: TCM symptom score, total and single (chest pain, chest tightness, short breath, fatigue, palpitation, spontaneous perspiration, pale complexion), same clinical trial
Type: in vivo, human
Parameters: total score of TCM symptom, Mean / total score of TCM symptom, Min / total score of TCM symptom, Max / total score of TCM symptom, Md / change of total score of TCM symptom, Mean / change of total score of TCM symptom, Max / change of total score of TCM symptom, Md: scale not given here
Conditions: PP
Description: 3508 patients who were in accordance with the diagnostic standards of AMI for 28 days to 2 years and differentiated as Qi deficiency and blood stagnation syndrome by TCM were studied. 0.5 g Chinese medicine composition prepared by the method of EXAMPLE 1 (Coded as QSYQ) was administrated half an hour after meal, 3 times per day.
They included the overall survival time, angina pectoris score, TCM symptom score and life quality score, where angina pectoris score, TCM symptom score and life quality score were evaluated at randomization, in 1st, 3rd, 6th, 9th, 12th month after treatment and 18th month after follow-up.
The analysis method referred to the angina pectoris score.

[1] = 1 month after treatment-baseline
[2] = 3 month after treatment-baseline
[3] = 3 months after treatment-baseline

## CC(=O)Oc1ccccc1C(=O)O [Control group, aspirine]
[1]
  change of palpitation −3, number of patients: 0
  change of palpitation −3, percent of patients: (0.00%)
  change of short breath 0, % of patients: (77.53%)
  change of short breath 0, number of patients: 1132
  change of short breath 2, % of patients: (14.59%)
  change of short breath 2, number of patients: 213
  change of short breath 4, % of patients: (1.71%)
  change of short breath 4, number of patients: 25
  change of short breath 6, % of patients: (0.41%)
  change of short breath 6, number of patients: 6
  change of short breath −2, % of patients: (5.27%)
  change of short breath −2, number of patients: 77
  change of short breath −4, % of patients: (0.48%)
  change of short breath −4, number of patients: 7
  change of short breath −6, % of patients: (0.00%)
  change of short breath −6, number of patients: 0
  change of spontaneous perspiration 0, number of patients: 1068
  change of spontaneous perspiration 0, percent of patients: (73.15%)
  change of spontaneous perspiration 1, number of patients: 238
  change of spontaneous perspiration 1, percent of patients: (16.30%)
  change of spontaneous perspiration 2, number of patients: 48
  change of spontaneous perspiration 2, percent of patients: (3.29%)
  change of spontaneous perspiration 3, number of patients: 12
  change of spontaneous perspiration 3, percent of patients: (0.82%)
  change of spontaneous perspiration −1, number of patients: 77
  change of spontaneous perspiration −1, percent of patients: (5.27%)
  change of spontaneous perspiration −2, number of patients: 14
  change of spontaneous perspiration −2, percent of patients: (0.96%)
  change of spontaneous perspiration −3, number of patients: 3
  change of spontaneous perspiration −3, percent of patients: (0.21%)
  change of total score of TCM symptom, Max: 24.00
  change of total score of TCM symptom, Md: −1.00
  change of total score of TCM symptom, Mean: −2.00
  change of total score of TCM symptom, Min: −28.00
[2]
  change of total score of TCM symptom, Max: 19.00
  change of total score of TCM symptom, Md: −2.00
  change of total score of TCM symptom, Mean: −3.05
  change of total score of TCM symptom, Min: −28.00
3 months after treatment
  distribution of total score of TCM symptom: Medium, number of patients: 489
  distribution of total score of TCM symptom: Medium, percentage of patients: (33.79%)
  distribution of total score of TCM symptom: Mild, number of patients: 946
  distribution of total score of TCM symptom: Mild, percentage of patients: (65.38%)
  distribution of total score of TCM symptom: Severe, number of patients: 12
  distribution of total score of TCM symptom: Severe, percentage of patients: (0.83%)
  fatigue score 0, % of patients: (28.28%)
  fatigue score 0, number of patients: 409
  fatigue score 2, % of patients: (59.75%)
  fatigue score 2, number of patients: 864
  fatigue score 4, % of patients: (11.41%)
  fatigue score 4, number of patients: 165
  fatigue score 6, % of patients: (0.55%)
  fatigue score 6, number of patients: 8
  pale complexion score 0, number of patients: 693
  pale complexion score 0, percent of patients: (47.89%)
  pale complexion score 1, number of patients: 566
  pale complexion score 1, percent of patients: (39.12%)
  pale complexion score 2, number of patients: 172
  pale complexion score 2, percent of patients: (11.89%)
  pale complexion score 3, number of patients: 16
  pale complexion score 3, percent of patients: (1.11%)
  palpitation score 0, number of patients: 403
  palpitation score 0, percent of patients: (27.87%)
  palpitation score 2, number of patients: 759
  palpitation score 2, percent of patients: (52.49%)
  palpitation score 4, number of patients: 261
  palpitation score 4, percent of patients: (18.05%)
  palpitation score 6, number of patients: 23
  palpitation score 6, percent of patients: (1.59%)
  short breath score 0, % of patients: (21.44%)
  short breath score 0, number of patients: 310
  short breath score 3, % of patients: (59.13%)
  short breath score 3, number of patients: 855
  short breath score 6, % of patients: (18.74%)
  short breath score 6, number of patients: 271
  short breath score 9, % of patients: (0.69%)
  short breath score 9, number of patients: 10
  spontaneous perspiration score 0, number of patients: 563
  spontaneous perspiration score 0, percent of patients: (38.93%)
  spontaneous perspiration score 1, number of patients: 709
  spontaneous perspiration score 1, percent of patients: (49.03%)
  spontaneous perspiration score 2, number of patients: 167
  spontaneous perspiration score 3, number of patients: 7
  spontaneous perspiration score 3, percent of patients: (0.48%)
  total score of TCM symptom, Max: 33.00
  total score of TCM symptom, Md: 10.00
  total score of TCM symptom, Mean: 10.88
  total score of TCM symptom, Min: 0.00
[3]
  change of fatigue 0, % of patients: (63.96%)
  change of fatigue 0, number of patients: 923
  change of fatigue 2, % of patients: (25.50%)
  change of fatigue 2, number of patients: 368
  change of fatigue 4, % of patients: (4.16%)
  change of fatigue 4, number of patients: 60
  change of fatigue 6, % of patients: (0.97%)
  change of fatigue 6, number of patients: 14
  change of fatigue −2, % of patients: (4.85%)
  change of fatigue −2, number of patients: 70
  change of fatigue −4, % of patients: (0.42%)
  change of fatigue −4, number of patients: 6
  change of fatigue −6, % of patients: (0.14%)
  change of fatigue −6, number of patients: 2
  change of pale complexion 0, number of patients: 1177
  change of pale complexion 0, percent of patients: (81.68%)
  change of pale complexion 1, number of patients: 217
  change of pale complexion 1, percent of patients: (15.06%)
  change of pale complexion −1, number of patients: 47
  change of pale complexion −1, percent of patients: (3.26%)
  change of palpitation 0, number of patients: 943
  change of palpitation 0, percent of patients: (65.35%)
  change of palpitation 1, number of patients: 356
  change of palpitation 1, percent of patients: (24.67%)
  change of palpitation 2, number of patients: 39
  change of palpitation 2, percent of patients: (2.70%)
  change of palpitation 3, number of patients: 5
  change of palpitation 3, percent of patients: (0.35%)
  change of palpitation −1, number of patients: 99
  change of palpitation −1, percent of patients: (6.86%)
  change of palpitation −2, number of patients: 1
  change of palpitation −2, percent of patients: (0.07%)
  change of palpitation −3, number of patients: 0
  change of palpitation −3, percent of patients: (0.00%)
  change of short breath 0, % of patients: (70.27%)
  change of short breath 0, number of patients: 1014
  change of short breath 2, % of patients: (21.41%)
